Experimental findings from patent US12599642B2, “Compositions derived from Salvia hispanica seeds” (Signum Biosciences, priority 2020, dated 2026) are described below.

The target of assay [1] is T1, PME-1 (Homo sapiens, UniProt Q9Y570).
T1 construct: made in house
T1 sequence (Q9Y570 1-386): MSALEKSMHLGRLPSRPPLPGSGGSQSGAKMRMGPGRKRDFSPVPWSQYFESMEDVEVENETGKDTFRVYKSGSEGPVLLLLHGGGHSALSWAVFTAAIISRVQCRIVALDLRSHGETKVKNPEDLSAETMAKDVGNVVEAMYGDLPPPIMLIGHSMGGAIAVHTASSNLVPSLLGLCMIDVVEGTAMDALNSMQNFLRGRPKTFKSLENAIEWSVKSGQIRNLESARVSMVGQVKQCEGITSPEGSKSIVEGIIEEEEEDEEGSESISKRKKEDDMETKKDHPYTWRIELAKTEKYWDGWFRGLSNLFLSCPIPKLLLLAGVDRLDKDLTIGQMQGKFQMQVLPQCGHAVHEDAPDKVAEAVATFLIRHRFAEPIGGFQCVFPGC
Put plainly: PP2A demethylation by PME-1, radioactive filter binding assay. It counts as biochemical. How it is done:
Compositions were created using the extraction methods as generally described in Example 1. These compositions were assayed for their ability to preserve the methylation status of PP2A AC dimer in the presence of protein phosphatase methylesterase-1 (PME-1), using a radioactive filter binding assay.
PP2A-AC dimer was prepared as previously described in Tolstykh T, Lee J, Vafai S, Stock J B. Carboxyl methylation regulates phosphoprotein phosphatase 2A by controlling the association of regulatory B subunits. EMBO J. 2000; 19(20:5682-5691. Additional purification was performed with a HiPrep™ 16/60 Sephacryl® S100 HR in a buffer composed of 50 mM MOPS pH 7.2, 1.0 mM EDTA, 1.0 mM dithiothreitol (DTT), and 0.50 μg/ml each of aprotinin, leupeptin and pepstatin. Leucine carboxyl methytransferase-1 (LCMT-1) and Protein phosphatase methylesterase-1 (PME-1) were prepared using the methods as previously described Xing Y, Li Z, Chen Y, Stock J B, Jeffrey P D, Shi Y. Structural mechanism of demethylation and inactivation of protein phosphatase 2A. Cell. 2008; 133(I):154-163.
[3H]-labeled methylated PP2A AC dirtier was prepared by incubating PP2A, LCMT1 and [3H]-SAM (PerkinElmer; Waltham, Mass.) in 50 mM MOPS-Na (pH 7.2), 5 mM MgCl2, and 1 mM DTT at room temperature for 1 hour. Demethylation of PP2A by PME-1 was measured using the radioactive filter binding assay format. 20 nM PME-1 was incubated for 15 minutes with extract or compound, then 20 nM of [3H]-labeled methylated PP2A AC dimer was added. Reactions were run at room temperature for 30 minutes and then applied to a 96-well filter plate (Millipore Co.) containing 30% TCA where proteins were precipitated and separated from the excess of [3H]-SAM by washing with 70% ethanol. [3H]-incorporation was measured using TopCount NXT scintillation counter (PerkinEimer; Waltham, MA). IC50 values were generated from dose-response curves using a four-parameter logistic curve fit using SigmaPlot software (Systat Software, San Jose, CA).

Assay [2] deals with human pre-adipocyte cells. Kind of assay: Lipolysis assay, glycerol release. The settings on record: 100 μM, 8 hours. The format is cell-based. The text has this:
Lipolysis is the process in which triglycerides (TG) are hydrolyzed into glycerol and free fatty acids. This process releases free fatty acids (FFA) into the bloodstream where they may be either re-esterified by the adipocyte or travel to other tissues and exert other effects throughout the body. The purpose of this study was to evaluate the lipolysis via measure of the glycerol molecule released in lipolysis process. Here, we evaluated the potential capacity of the chia seed extract composition of Example 1 in cultured human pre-adipocyte cells. Cells were seeded in medium and incubated for 7 days. Neat solutions of the enriched free acid chia seed extract composition of Example 1 were prepared formulated in methanol. Cells were pre-treated for 8 hours with or without test material in media.
A Lipolysis Assay Kit (Cat. No. Lip-1) was obtained from Zen-Bio, Inc. (Research Triangle, NC) and used to determine glycerol levels (μM) based on the methodology described below. Glycerol released to the medium is phosphorylated by […] (ATP) forming glycerol-1-phosphate (G-1-P) and adenosine-5′-diphosphate (ADP) in the reaction catalyzed by glycerol kinase. G-1-P is then oxidized by glycerol phosphate oxidase to dihydroxyacetone phosphate (DAP) and hydrogen peroxide. […] The increase in absorbance at 540 nm is directly proportional to glycerol concentration of the sample. […]

Assay [3] in a line: Clinical trial, skin moisturization by Corneometer. It counts as in vivo, human. The settings on record: lower leg. How it is done: A single-blind, single-center clinical trial was conducted with 6 healthy volunteers of either sex to evaluate the moisturization efficacy of a moisturizing cream (formulated as shown below in Table 8) containing the composition prepared using the process of Example 9, vehicle (i.e., the formulation of Table 8 minus the active ingredient-i.e., the chia seed composition), a negative control (untreated), and two positive controls (petroleum jelly and glycerin). The objective of this study was to evaluate the moisturization efficacy (as measured by Corneometer®) and to evaluate the relative degree of improvement to skin barrier functionality of two test articles as measured by Trans Epidermal Water Loss (TEWL) assessments when tested in 16 healthy subjects. See, e.g., Johan du […] et al., International Guidelines for The In Vivo Assessment Of Skin Properties In Noel-Clinical Settings: Part 2. Transepidermal Water Loss and Skin Hydration, Skin Res. Technol. 19(3), 265-278 (2013); C. W. Blichmann and J. Serup, Assessment of Skin Moisture. Measurement of Electrical Conductance: Capacitance and Transepidermal Water Loss, Acta Derm. Venereol. 68(4): 284-290 (1988). On day -3 of the study, subjects were given a bland soap product (e.g., Simple® Soap) to use on their lower legs for the three days prior to the active phase. They were instructed not to use any other treatment products on their lower legs for the next 3 days (the “Washout Phase”). These products included moisturizing foam baths, shower gels or soaps, lotions and creams, and depilatory products. As part of the pre-treatment assessment, subjects sat resting for a period of at least 30 minutes in a controlled environment at a temperature of 22° C.±2° C. and at a relative humidity of 45%±5%. Following the rest period, their lower legs were marked with a total of four 5 cm×5 cm squares. Moisturization measurements to study the humectant properties of the test articles were performed using the Corneometer® CM825 (Courage and Khazaka, Germany). This instrument relies on the dielectric constant, a physical property of water, which is relatively high and as such will affect the capacitance of a capacitor. Any change in the dielectric constant due to skin moisture variations would alter the capacitance of the precision capacitor in the instrument. These variations were detected electronically and converted into a value by the Corneometer®. A 15-minute warm-up period was allowed before using the Corneometer®. Following assessments of skin hydration by a Corneometer®, a single application of the test articles (i.e., the chia seed formulation and vehicle alone) was made to the lower leg. Further Corneometer® assessments were then performed at 2, 8, and 24-hours following test article application. […]

Assay [4] has as its system Staphylococcus aureus (ATCC® 29213™). Put plainly: Minimum inhibitory concentration, growth of S. aureus. The format is cell-based. The settings on record: for MIC Staphylococcus aureus (ATCC ® 29213 ™): 90% inhibition of growth, aerobic, 24 hours, Table 6; for MIC Staphylococcus aureus (ATCC ® 29213): Table 14. How it is done: (§1) The inhibition of growth of Cutibacterium acnes and Staphylococcus aureus bacteria was measured according to the methods described in Nakatsuji et al., J Invest Dermatol, 2009, 129: 2480-2488; Traub and Leonhard, Chemotherapy, 1994; 40(6):374-383. In summary, the strain ATCC® 6919™ of C. acnes (American Type Culture Collection, Manassas, VA) was cultured on Reinforced Clostridium agar (BD 218081), under anaerobic conditions using Gas-Pak (B D, Sparks, MD) at 37° C. ATCC® 29213™ strain of S. aureus was cultured on tryptic soy agar (BD 211825), under aerobic conditions at 37° C. A single colony was inoculated in broth medium and cultured at 37° C. In addition to various positive controls, both the Final Product and the First Stage Product of the extraction process described in Example 1 were tested as described below. Test material was dissolved in 100% (v/v) DMSO. Doxycycline was dissolved in 100% (v/v) water. Samples of each test material and a solution of doxycycline were then each incubated with an inoculum of bacteria at a concentration of 1×10^6 CFU per mL, in broth medium in a 96-well microplate (0.1 mL per well) under aerobic conditions for 24 hours (S. aureus) or anaerobic conditions for 72 hours (C. acnes). Samples of each material were tested at final concentrations per well up to 4 mg/mL. A control well received only 5% (v/v) of DMSO or water. After 24-72 hours incubation, the bacteria cultures in the 96-well microplate were mixed well and then absorbance readings at 600 nm were taken to determine bacterial growth.

Assay [5] has as its system Cutibacterium acnes (ATCC® 6919™). Put plainly: Minimum inhibitory concentration, growth of C. acnes. The settings on record: for MIC Cutibacterium acnes (ATCC ® 6919 ™): 90% inhibition of growth, anaerobic, 72 hours, Table 6; for MIC Cutibacterium acnes (ATCC ® 6919): Table 14. The format is cell-based. On the procedure:
as §1

Molecules are shown by their SMILES. Marks after values point to notes of the source that are not given here.

For `CCCCC/C=C\C/C=C\CCCCCCCC(=O)O` [LA, cis,cis-9,12-octadecadienoic acid], in assay [1] (regardless of [ALA]), the “[LA] at which 50% PP2A inhibition is achieved” value was at least 1 µg/mL.

On to `CC/C=C\C/C=C\C/C=C\CCCCCCCC(=O)O` [ALA, cis,cis,cis-9,12,15-octacedatriencoic acid], for which the “[ALA] necessary to obtain 50% PP2A inhibition” value in assay [1] ([LA]=0 μg/mL) is above 8 µg/mL; in assay [1] ([LA]=0.5 μg/mL), above 4 µg/mL.

Consider `CC(C)Cn1c(=O)n(C)c(=O)c2[nH]cnc21` [IBMX, 3-isobutyl-1-methylxanthine], for which, in assay [2], the “Glycerol Levels, Avg” value was 8.8* (p < 0.01 μM and the “Glycerol Levels, Fold Improvement” value turned out to be 6.4.

For `OCC(O)CO` [Positive Control (glycerine), glycerine], the “Mean Corneometer ® Values” in assay [3] (0 hours (before application)) came out at 22.7; in assay [3] (2 hours after single application), 127.1; in assay [3] (8 hours after single application) it was 106.8; in assay [3] (24 hours after single application) it was 82.3.

`O=C(O)c1ccccc1O` [Salicylic Acid]: in assay [4], the “MIC Staphylococcus aureus (ATCC ® 29213 ™)” value came to 2000 μg\mL and the “MIC Staphylococcus aureus (ATCC ® 29213)” value worked out at 2000 μg\mL. In addition, in assay [5], the “MIC Cutibacterium acnes (ATCC ® 6919 ™)” value is given as 1000 μg\mL and the “MIC Cutibacterium acnes (ATCC ® 6919)” value is listed as 500 μg\mL.

`O=C(OOC(=O)c1ccccc1)c1ccccc1` [Benzoyl peroxide]: in assay [4], the “MIC Staphylococcus aureus (ATCC ® 29213 ™)” value was found to be 500 μg\mL and the “MIC Staphylococcus aureus (ATCC ® 29213)” value amounted to 500 μg\mL. Besides, in assay [5], the “MIC Cutibacterium acnes (ATCC ® 6919 ™)” value is given as 500 μg\mL and the “MIC Cutibacterium acnes (ATCC ® 6919)” value is reported as 500 μg\mL.

For `C[C@H]1c2cccc(O)c2C(=O)C2=C(O)[C@]3(O)C(=O)C(C(N)=O)=C(O)[C@@H](N(C)C)[C@@H]3[C@@H](O)[C@@H]21` [Doxycycline], in assay [4], the “MIC Staphylococcus aureus (ATCC ® 29213 ™)” value was determined as 0.2 μg\mL and the “MIC Staphylococcus aureus (ATCC ® 29213)” value turned out to be 0.2 μg\mL. Moreover, in assay [5], the “MIC Cutibacterium acnes (ATCC ® 6919 ™)” value was found to be 0.6 μg\mL and the “MIC Cutibacterium acnes (ATCC ® 6919)” value is listed as 0.6 μg\mL.
